Here are results for 3 compounds from patent US12439919B2, “Active compound combinations” (priority 2019, dated 2025).

For one assay, the system named is Alternaria solani. Description: In vivo preventive test on Alternaria test (tomatoes) (Example G1). The following applies: 3 days after inoculation. The text has this:
(§1) A synergistic effect of fungicides is always present when the fungicidal activity of the active compound combinations exceeds the total of the activities of the active compounds when applied individually. The expected activity for a given combination of two active compounds can be calculated as follows (cf. Colby, S. R., “Calculating Synergistic and Antagonistic Responses of Herbicide Combinations,” Weeds 1967, 15, 20-22):
(§2) If • X is the efficacy when active compound A is applied at an application rate of m ppm (or g/ha), • Y is the efficacy when active compound B is applied at an application rate of n ppm (or g/ha), • Z is the efficacy when active compound […] ppm (or g/ha), • E1 is the efficacy when the active compounds A and B are applied at application rates of m and n ppm (or g/ha), respectively, and • E2 is the efficacy when the active compounds A, B and C are applied at application rates of m, n and r ppm (or g/ha), respectively, and then
(§3) The degree of efficacy, expressed in % is denoted. 0% means an efficacy which corresponds to that of the control while an efficacy of 100% means that no disease is observed.
(§4) If the actual fungicidal activity exceeds the calculated value, then the activity of the combination is superadditive, i.e., a synergistic effect exists. In this case, the efficacy which was actually observed must be greater than the value for the expected efficacy (E) calculated from the abovementioned formula.
(§5) Solvent: 24.5 parts by weight of acetone • 24.5 parts by weight of dimethyl sulfoxide
(§6) Emulsifier: 1 part by weight of alkylaryl polyglycol ether
(§7) To produce a suitable preparation of active compound, 1 part by weight of active compound is mixed with the stated amounts of solvent and emulsifier, and the concentrate is diluted with water to the desired concentration.
To test for preventive activity, young plants are sprayed with the preparation of active compound at the stated rate of application. After the spray coating has dried on, the plants are inoculated with an aqueous spore suspension of Alternaria solani. The plants are then placed in an incubation cabinet at approximately 20° C. and a relative atmospheric humidity of 100%.
The test is evaluated 3 days after the inoculation. 0% means an efficacy which corresponds to that of the untreated control while an efficacy of 100% means that no disease is observed.

In a further assay the test system is Venturia inaequalis. Description: In vivo preventive test on Venturia test (apples) (Example G2). As to conditions: 10 days after inoculation.
From the text: as §1, §2, §3, §4, §5, §6, §7
To test for preventive activity, young plants are sprayed with the preparation of active compound at the stated rate of application. After the spray coating has dried on, the plants are inoculated with an aqueous conidia suspension of the causal agent of apple scab (Venturia inaequalis) and then remain for 1 day in an incubation cabinet at approximately 20° C. and a relative atmospheric humidity of 100%.
The plants are then placed in a greenhouse at approximately 21° C. and a relative atmospheric humidity of approximately 90%.
The test is evaluated 10 days after the inoculation. 0% means an efficacy which corresponds to that of the untreated control, while an efficacy of 100% means that no disease is observed.

A further assay deals with lentils. Put plainly: Field trials in lentils Western Canada 2018, yield (Example H). The format is in vivo. On the procedure: Field trials in lentils were conducted in Western Canada in spring/summer 2018.
(§8) Fertilization and herbicide applications were carried out according to the local agricultural practice.
(§9) Fluopyram was added to Delaro in a final concentration of 50, 75 and 90 g/ha.
The following products as shown in Table 18 were sprayed using a Backpack hand boom sprayer with air induction flat fan spray nozzles applying 93.5 L/Ha spray solution at crop BBCH—growth stage 62-63.

The subject of another assay is field peas. Description: Field trials in field peas Western Canada 2018, yield (Example I). The assay is classed as in vivo. On the procedure:
Field trials in field peas were conducted in Western Canada in spring/summer 2018.
as §8, §9
The following products as shown in Table 20 were sprayed using a Backpack hand boom sprayer with flat fan spray nozzles applying 93.5 L/ha spray solution at crop BBCH growth stage 63.

Take `O=C(NCCc1ncc(C(F)(F)F)cc1Cl)c1ccccc1C(F)(F)F` [Fluopyram, N-[2-[3-chloro-5-(trifluoromethyl)-2-pyridinyl]ethyl]-2-(trifluoromethyl)benzamide]: the Efficacy % in the assay with Alternaria solani (fluopyram 0.75 ppm) is 5%; with Alternaria solani (fluopyram 1.5 ppm), 8%; in the assay on Alternaria solani (fluopyram 3 ppm), 10%; with Venturia inaequalis (fluopyram 0.75 ppm), 0%; with Venturia inaequalis (fluopyram 1.5 ppm), 0%; with Venturia inaequalis (fluopyram 3 ppm) it was 5%. In addition, the “Yield [% of Priaxor treatment-Priaxor is 100%]” value is 93.8 % of Priaxor treatment in the assay with lentils (BBCH 62-63, Fluopyram 50 g/ha); 96.3 % of Priaxor treatment with lentils (BBCH 62-63, Fluopyram 75 g/ha); 98.9 % of Priaxor treatment in the assay on field peas (BBCH 63, Fluopyram 50 g/ha); 99.7 % of Priaxor treatment in the assay with field peas (BBCH 63, Fluopyram 75 g/ha).

With `OC(Cc1ccccc1Cl)(Cn1nc[nH]c1=S)C1(Cl)CC1` (stereo not shown) [Prothioconazole, 2-[2-(1-chlorocyclopropyl)-3-(2-chlorophenyl)-2-hydroxypropyl]-1,2-dihydro-3H-1,2,4-triazole-3-thione], the Efficacy % in the assay with Alternaria solani (prothioconazole 1.05 ppm) is 0%; with Alternaria solani (prothioconazole 2.1 ppm), 0%; in the assay with Alternaria solani (prothioconazole 4.2 ppm), 10%; with Venturia inaequalis (prothioconazole 1.05 ppm) it was 0%; in the assay on Venturia inaequalis (prothioconazole 2.1 ppm), 17%; in the assay with Venturia inaequalis (prothioconazole 4.2 ppm), 41%.

On to `CO/N=C(/C(=O)OC)c1ccccc1CO/N=C(\C)c1cccc(C(F)(F)F)c1` [Trifloxystrobin, methylalpha-(methoxyimino)-2-[[[[1-[3-(trifluoromethyl)phenyl]ethylidene]amino]oxy]methyl]-benzeneacetate], for which the Efficacy % was 23% with Alternaria solani (trifloxystrobin 0.9 ppm); 31% in the assay with Alternaria solani (trifloxystrobin 1.8 ppm); 41% with Alternaria solani (trifloxystrobin 3.6 ppm); 40% with Venturia inaequalis (trifloxystrobin 0.9 ppm); 65% in the assay on Venturia inaequalis (trifloxystrobin 1.8 ppm); 89% in the assay with Venturia inaequalis (trifloxystrobin 3.6 ppm).
